Reference: ChEMBL document CHEMBL4808173, “Discovery of Novel Benzimidazole and Indazole Analogues as Tubulin Polymerization Inhibitors with Potent Anticancer Activities” (J Med Chem, 2021)
Blank lines part the entries; values can stand above or below the compound they belong to.

Tests used:
MCF7 [1] = test: Cell cycle analysis in human MCF7 cells assessed as accumulation at G2 phase at 5 nM measured after 48 hrs by RnaseA/propidium iodide staining based flow cytometry (reference value: 17.03 %); type: functional
A549 = test: Antiproliferative activity against human A549 cells assessed as reduction in cell viability measured after 48 hrs by MTT assay; type: functional, cell-based; settings: for IC50: A549, 48 h
[2] = (§1) Inhibition of pig brain tubulin polymerization by spectrophotometric method; type: tissue-based, Sus scrofa
Sus scrofa = species: Sus scrofa; test: as §1; type: tissue-based
A2780/Taxol [3] = test: Antiproliferative activity against human A2780T cells assessed as reduction in cell viability measured after 48 hrs by MTT assay; type: functional, cell-based
B16-F10 [4] = test: Antitumor activity against mouse B16-F10 cells inoculated in BALB/c mouse assessed as tumor growth inhibition at 15 mg/kg, ip qd for 14 days by caliper method relative to control; type: functional; settings: 336 h, time 14 day, read-out: TGI
[5] = Binding affinity to immobilized pig brain tubulin assessed as equilibrium dissociation constant by SPR assay; type: tissue-based, Sus scrofa
MCF7 [6] = test: Cell cycle analysis in human MCF7 cells assessed as accumulation at G1 phase at 10 nM measured after 48 hrs by RnaseA/propidium iodide staining based flow cytometry (reference value: 53.68 %); type: functional
MCF7 [7] = test: Induction of apoptosis in human MCF7 cells assessed as early apoptotic cells at 10 nM measured after 48 hrs by annexinV-FITC/propidium iodide staining based flow cytometry (reference value: 1.89 %); type: functional
[8] = Acute toxicity in BALB/c mouse inoculated with mouse B16-F10 cells assessed as effect on kidney at 15 to 30 mg/kg, ip qd for 14 days by hematoxylin and eosin staining based analysis; type: organism-based; settings: in vivo, 336 h, dose 15-30 mg/kg, time 14 day
MCF7 [9] = test: Cell cycle analysis in human MCF7 cells assessed as accumulation at S phase at 20 nM measured after 48 hrs by RnaseA/propidium iodide staining based flow cytometry (reference value: 27.46 %); type: functional
MCF7 [10] = test: Inhibition of colony formation in human MCF7 cells assessed as decrease in colonies measured after 24 hrs by photographic imaging analysis; type: functional, cell-based; settings: dose 0.05-5 µM
HeLa = test: Antiproliferative activity against human HeLa cells assessed as reduction in cell viability measured after 48 hrs by MTT assay; type: functional, cell-based
MCF7 [11] = test: Induction of apoptosis in human MCF7 cells assessed as late apoptotic cells at 5 nM measured after 48 hrs by annexinV-FITC/propidium iodide staining based flow cytometry (reference value: 5.99 %); type: functional
MCF7 [12] = test: Induction of apoptosis in human MCF7 cells assessed as late apoptotic cells at 10 nM measured after 48 hrs by annexinV-FITC/propidium iodide staining based flow cytometry (reference value: 5.99 %); type: functional
B16-F10 [13] = test: Antimigratory activity in mouse B16-F10 cells assessed as inhibition of cell migration by measuring wound closure at 10 nM measured after 24 hrs (reference value: 51.92 +/- 2.02 %); type: functional; set-up: scale not given: the % may be the effect or the level left
MCF7 [14] = test: Induction of apoptosis in human MCF7 cells assessed as necrotic cells at 10 nM measured after 48 hrs by annexinV-FITC/propidium iodide staining based flow cytometry (reference value: 2.62 %); type: functional
MCF7 [15] = test: Cell cycle analysis in human MCF7 cells assessed as accumulation at G2 phase at 10 nM measured after 48 hrs by RnaseA/propidium iodide staining based flow cytometry (reference value: 17.03 %); type: functional
A2780/Taxol [16] = test: Inhibition of colony formation in human A2780T cells assessed as decrease in colonies measured after 24 hrs by photographic imaging analysis; type: functional, cell-based; settings: dose 10-100 nM
B16-F10 [17] = test: Antiproliferative activity against mouse B16-F10 cells assessed as reduction in cell viability measured after 48 hrs by MTT assay; type: functional, cell-based; settings: for IC50: B16-F10, 48 h
[18] = Acute toxicity in BALB/c mouse inoculated with mouse B16-F10 cells assessed as effect on body weight at 15 mg/kg, ip qd for 14 days; type: organism-based; settings: in vivo, 336 h, time 14 day
MCF7 [19] = test: Induction of apoptosis in human MCF7 cells assessed as live cells at 20 nM measured after 48 hrs by annexinV-FITC/propidium iodide staining based flow cytometry (reference value: 88.5 %); type: functional
MCF7 [20] = test: Induction of apoptosis in human MCF7 cells assessed as live cells at 5 nM measured after 48 hrs by annexinV-FITC/propidium iodide staining based flow cytometry (reference value: 88.5 %); type: functional
B16-F10 [21] = test: Antimigratory activity in mouse B16-F10 cells assessed as inhibition of cell migration measured after 24 hrs; type: functional, cell-based; settings: dose 5-20 nM
B16-F10 [22] = test: Disruption of microtubule network in mouse […] cells measured after 6 hrs by DAPI staining based immunofluorescence microscopic assay; type: cell-based; settings: dose 10-40 nM
[23] = Acute toxicity in BALB/c mouse inoculated with mouse B16-F10 cells assessed as effect on liver at 15 to 30 mg/kg, ip qd for 14 days by hematoxylin and eosin staining based analysis; type: organism-based; settings: in vivo, 336 h, dose 15-30 mg/kg, time 14 day
B16-F10 [24] = test: Antimigratory activity in mouse B16-F10 cells assessed as inhibition of cell migration by measuring wound closure at 5 nM measured after 24 hrs (reference value: 51.92 +/- 2.02 %); type: functional; set-up: scale not given: the % may be the effect or the level left
MCF7 [25] = test: Induction of apoptosis in human MCF7 cells assessed as necrotic cells at 20 nM measured after 48 hrs by annexinV-FITC/propidium iodide staining based flow cytometry (reference value: 2.62 %); type: functional
MCF7 [26] = test: Cell cycle analysis in human MCF7 cells assessed as accumulation at G2 phase at 20 nM measured after 48 hrs by RnaseA/propidium iodide staining based flow cytometry (reference value: 17.03 %); type: functional
MCF7 [27] = test: Cell cycle analysis in human MCF7 cells assessed as accumulation at G1 phase at 5 nM measured after 48 hrs by RnaseA/propidium iodide staining based flow cytometry (reference value: 53.68 %); type: functional
[28] = Resistance index, ratio of IC50 for antiproliferative activity against human A2780T cells assessed as reduction in cell viability measured after 48 hrs by MTT assay to IC50 for antiproliferative activity against human A2780S cells assessed as reduction in cell viability measured after 48 hrs by MTT assay; type: functional
MCF7 [29] = test: Induction of apoptosis in human MCF7 cells assessed as late apoptotic cells at 20 nM measured after 48 hrs by annexinV-FITC/propidium iodide staining based flow cytometry (reference value: 5.99 %); type: functional
MCF7 [30] = test: Induction of apoptosis in human MCF7 cells assessed as live cells at 10 nM measured after 48 hrs by annexinV-FITC/propidium iodide staining based flow cytometry (reference value: 88.5 %); type: functional
MCF7 [31] = test: Induction of apoptosis in human MCF7 cells assessed as early apoptotic cells at 5 nM measured after 48 hrs by annexinV-FITC/propidium iodide staining based flow cytometry (reference value: 1.89 %); type: functional
A2780S = test: Antiproliferative activity against human A2780S cells assessed as reduction in cell viability measured after 48 hrs by MTT assay; type: functional, cell-based
MCF7 [32] = test: Cell cycle analysis in human MCF7 cells assessed as accumulation at S phase at 10 nM measured after 48 hrs by RnaseA/propidium iodide staining based flow cytometry (reference value: 27.46 %); type: functional
MCF7 [33] = test: Induction of apoptosis in human MCF7 cells assessed as early apoptotic cells at 20 nM measured after 48 hrs by annexinV-FITC/propidium iodide staining based flow cytometry (reference value: 1.89 %); type: functional
MCF7 [34] = test: Cell cycle analysis in human MCF7 cells assessed as accumulation at S phase at 5 nM measured after 48 hrs by RnaseA/propidium iodide staining based flow cytometry (reference value: 27.46 %); type: functional
MCF7 [35] = test: Antiproliferative activity against human MCF7 cells assessed as reduction in cell viability measured after 48 hrs by MTT assay; type: functional, cell-based; settings: for IC50: MCF7, 48 h
B16-F10 [36] = test: Antitumor activity against mouse B16-F10 cells inoculated in BALB/c mouse assessed as tumor growth inhibition at 30 mg/kg, ip qd for 14 days by caliper method relative to control; type: functional; settings: 336 h, time 14 day, read-out: TGI
MCF7 [37] = test: Induction of apoptosis in human MCF7 cells assessed as necrotic cells at 5 nM measured after 48 hrs by annexinV-FITC/propidium iodide staining based flow cytometry (reference value: 2.62 %); type: functional
MCF7 [38] = test: Cell cycle analysis in human MCF7 cells assessed as accumulation at G1 phase at 20 nM measured after 48 hrs by RnaseA/propidium iodide staining based flow cytometry (reference value: 53.68 %); type: functional
B16-F10 [39] = test: Antimigratory activity in mouse B16-F10 cells assessed as inhibition of cell migration by measuring wound closure at 20 nM measured after 24 hrs (reference value: 51.92 +/- 2.02 %); type: functional; set-up: scale not given: the % may be the effect or the level left

SMILES: COc1cc(-c2cccc3[nH]c(-c4cccc5c4ccn5C)nc23)cc(OC)c1OC
- Activity (MCF7 [1]): 13.41%
- Activity (A549): Dose-Dependent Effect
- IC50 (A549): 85 nM
- IC50 [2]: 2520 nM
- inhibition (Sus scrofa): Dose-Dependent Effect
- IC50 (A2780/Taxol [3]): 9.7 nM
- inhibition in vivo at 15 mg/kg (B16-F10 [4]): 78.7%
- Kd [5]: 12700 nM
- Activity (MCF7 [6]): 13.1%
- Activity (MCF7 [7]): 5.12%
- Activity [8]: Non-Toxic
- Activity (MCF7 [9]): 19.63%
- inhibition (MCF7 [10]): Dose-Dependent Effect
- Activity (HeLa): Dose-Dependent Effect
- IC50 (HeLa): 68 nM
- Activity (MCF7 [11]): 9.04%
- Activity (MCF7 [12]): 28.4%
- Activity (B16-F10 [13]): 15.68%
- Activity (MCF7 [14]): 2.12%
- Activity (MCF7 [15]): 62.8%
- inhibition (A2780/Taxol [16]): Dose-Dependent Effect
- Activity (B16-F10 [17]): Dose-Dependent Effect
- IC50 (B16-F10 [17]): 29 nM
- Activity [18]: Non-Toxic
- Activity (MCF7 [19]): 58.9%
- Activity (MCF7 [20]): 83.7%
- inhibition (B16-F10 [21]): Dose-Dependent Effect
- Activity (B16-F10 [22]): Dose-Dependent Effect
- Activity [23]: Non-Toxic
- Activity (B16-F10 [24]): 29.42%
- Activity (MCF7 [25]): 2.14%
- Activity (MCF7 [26]): 62.16%
- Activity (MCF7 [27]): 62.06%
- Ratio IC50 [28]: 1.6
- Activity (MCF7 [29]): 34.3%
- Activity (MCF7 [30]): 84.4%
- Activity (MCF7 [31]): 2.98%
- IC50 (A2780S): 6.2 nM
- Activity (MCF7 [32]): 22.93%
- Activity (MCF7 [33]): 4.69%
- Activity (MCF7 [34]): 23.09%
- Activity (MCF7 [35]): Dose-Dependent Effect
- IC50 (MCF7 [35]): 18 nM
- inhibition in vivo at 30 mg/kg (B16-F10 [36]): 84.3%
- Activity (MCF7 [37]): 4.26%
- Activity (MCF7 [38]): 17.16%
- Activity (B16-F10 [39]): 6.6%

- IC50 (A549): > 10000 nM
- IC50 (HeLa): > 10000 nM
- IC50 (B16-F10 [17]): > 10000 nM
- IC50 (MCF7 [35]): > 10000 nM
SMILES: COc1cc(-c2ccc3[nH]nc(-c4cccc(C(=N)NO)c4)c3c2)cc(OC)c1OC

- IC50 (A549): 93 nM
- IC50 (HeLa): 141 nM
- IC50 (B16-F10 [17]): 64 nM
- IC50 (MCF7 [35]): 26 nM
SMILES: COc1cc(-c2n[nH]c3ccc(-c4ccc5c(ccn5C)c4)cc23)cc(OC)c1OC

- IC50 (A549): 231 nM
- IC50 (HeLa): 443 nM
- IC50 (B16-F10 [17]): 443 nM
- IC50 (MCF7 [35]): 168 nM
SMILES: COc1cc(-c2ccnc3cc(-c4ccc(C)cc4)nn23)cc([Se]C)c1OC

- IC50 (A549): > 10000 nM
- IC50 (HeLa): > 10000 nM
- IC50 (B16-F10 [17]): > 10000 nM
- IC50 (MCF7 [35]): > 10000 nM
SMILES: COc1cc(-c2cccc3[nH]c(-c4ccc(C#N)cc4)nc23)cc(OC)c1OC

- IC50 (A549): > 10000 nM
- IC50 (HeLa): > 10000 nM
- IC50 (B16-F10 [17]): > 10000 nM
- IC50 (MCF7 [35]): > 10000 nM
SMILES: COc1ccc(-c2n[nH]c3ccc(-c4cc(OC)c(OC)c(OC)c4)cc23)cc1

- IC50 (A549): 531 nM
- IC50 (HeLa): 265 nM
- IC50 (B16-F10 [17]): 54 nM
- IC50 (MCF7 [35]): 43 nM
SMILES: COc1cc(-c2n[nH]c3ccc(-c4ccc(C)cc4)cc23)cc(OC)c1OC

- IC50 (A549): > 10000 nM
- IC50 (HeLa): > 10000 nM
- IC50 (B16-F10 [17]): > 10000 nM
- IC50 (MCF7 [35]): > 10000 nM
SMILES: COc1cc(-c2nccn3c(-c4ccc5c(ccn5C)c4)cnc23)cc(OC)c1OC

- IC50 (A549): 6980 nM
- IC50 (HeLa): 8520 nM
- IC50 (B16-F10 [17]): 8520 nM
- IC50 (MCF7 [35]): 3160 nM
SMILES: COc1cc(-c2ccnc3cc(-c4ccc(S(C)(=O)=O)cc4)nn23)cc([Se]C)c1OC
